Measurements published in PubChem BioAssay (NCI).
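How tested: cells in 96-well plates exposed to compound for 48 hours at five concentrations. Here, GI50 denotes the concentration required for 50% inhibition of growth. The concentration for full growth arrest is given as TGI.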

Assays:
Assay in all cases: NCI anticancer screen, dose series, 48 h
786-0 renal = system: 786-0 renal
A498 renal = system: A498 renal
A549 NSCLC = system: A549 NSCLC
ACHN renal = system: ACHN renal
DU-145 prostate = system: DU-145 prostate
HS 578T breast = system: HS 578T breast
MOLT-4 leukemia = system: MOLT-4 leukemia
NCI/ADR-RES ovarian = system: NCI/ADR-RES ovarian
SF-295 CNS = system: SF-295 CNS
SN12C renal = system: SN12C renal

In the case of `Fc1ccc(-c2c(-c3ccncc3)[nH]c3cccnc23)cc1`, the GI50 (786-0 renal) is reported as greater than 25 µM, the TGI (786-0 renal) is reported as greater than 25 µM and the GI50 (A498 renal) is reported as greater than 14.8 µM. For the same compound, the TGI (A498 renal) was greater than 25 µM, the GI50 (A549 NSCLC) was 17 µM and the TGI (A549 NSCLC) was greater than 25 µM. The GI50 (ACHN renal) was 1.63 µM, the TGI (ACHN renal) was greater than 25 µM and the GI50 (DU-145 prostate) was greater than 22.7 µM. For the same compound, the TGI (DU-145 prostate) was greater than 25 µM, the GI50 (HS 578T breast) was greater than 25 µM and the TGI (HS 578T breast) was greater than 25 µM. The GI50 (MOLT-4 leukemia) was greater than 25 µM, the TGI (MOLT-4 leukemia) was greater than 25 µM and the GI50 (NCI/ADR-RES ovarian) was greater than 25 µM. It also gave a TGI (NCI/ADR-RES ovarian) greater than 25 µM, a GI50 (SF-295 CNS) greater than 25 µM and a TGI (SF-295 CNS) greater than 25 µM. It also gave a GI50 (SN12C renal) of 18.8 µM and a TGI (SN12C renal) greater than 25 µM.
`N#Cc1ccc(C(=O)c2cnn(-c3ccc(F)cc3)c2N)cc1` gave a GI50 (786-0 renal) greater than 25 µM, a TGI (786-0 renal) greater than 25 µM and a GI50 (A498 renal) greater than 25 µM. The TGI (A498 renal) was greater than 25 µM, the GI50 (A549 NSCLC) was greater than 25 µM and the TGI (A549 NSCLC) was greater than 25 µM. It also gave a GI50 (ACHN renal) greater than 25 µM, a TGI (ACHN renal) greater than 25 µM and a GI50 (DU-145 prostate) greater than 25 µM. For the same compound, the TGI (DU-145 prostate) was greater than 25 µM, the GI50 (HS 578T breast) was greater than 25 µM and the TGI (HS 578T breast) was greater than 25 µM. For the same compound, the GI50 (MOLT-4 leukemia) was greater than 25 µM, the TGI (MOLT-4 leukemia) was greater than 25 µM and the GI50 (NCI/ADR-RES ovarian) was greater than 25 µM. For the same compound, the TGI (NCI/ADR-RES ovarian) was greater than 25 µM, the GI50 (SF-295 CNS) was greater than 25 µM and the TGI (SF-295 CNS) was greater than 25 µM. It also gave a GI50 (SN12C renal) greater than 25 µM and a TGI (SN12C renal) greater than 25 µM.
`COc1ccccc1/C=C1\CCC(CN2CCOCC2)C1=O` (stereo not drawn) gave a TGI (786-0 renal) of 8.53 µM, a TGI (A498 renal) of 32.4 µM and a TGI (A549 NSCLC) of 45 µM. It also gave a TGI (ACHN renal) of 30 µM, a TGI (DU-145 prostate) of 31.4 µM and a TGI (HS 578T breast) greater than 100 µM. For the same compound, the TGI (MOLT-4 leukemia) was 14.2 µM, the TGI (NCI/ADR-RES ovarian) was 35.8 µM and the TGI (SF-295 CNS) was 34.6 µM. For the same compound, the TGI (SN12C renal) was 16.2 µM.
Work on `CCc1c2c(nc3ccc(OC(=O)OCc4ccc(B5OC(C)(C)C(C)(C)O5)cc4)cc13)-c1cc3c(c(=O)n1C2)COC(=O)[C@]3(O)CC` yielded a GI50 (786-0 renal) of less than 0.01 µM, a TGI (786-0 renal) of 0.289 µM and a GI50 (A498 renal) of 0.011 µM. It also gave a TGI (A498 renal) of 0.0725 µM, a GI50 (A549 NSCLC) of 0.0556 µM and a TGI (A549 NSCLC) of 5.45 µM. For the same compound, the GI50 (ACHN renal) was less than 0.01 µM, the TGI (ACHN renal) was 0.432 µM and the GI50 (DU-145 prostate) was less than 0.01 µM. The TGI (DU-145 prostate) was greater than 53.3 µM, the GI50 (HS 578T breast) was 0.547 µM and the TGI (HS 578T breast) was 19.8 µM. It also gave a GI50 (MOLT-4 leukemia) of less than 0.01 µM, a TGI (MOLT-4 leukemia) greater than 100 µM and a GI50 (NCI/ADR-RES ovarian) of 0.0273 µM. For the same compound, the TGI (NCI/ADR-RES ovarian) was greater than 100 µM, the GI50 (SF-295 CNS) was less than 0.01 µM and the TGI (SF-295 CNS) was 1.48 µM. It also gave a GI50 (SN12C renal) of less than 0.01 µM and a TGI (SN12C renal) greater than 54.7 µM.
`COc1cc(C(=O)c2cnc(-c3ccc4cc[nH]c4c3)[nH]2)cc(OC)c1OC` showed a GI50 (786-0 renal) of 0.0419 µM, a TGI (786-0 renal) of 2.34 µM and a GI50 (A498 renal) of 0.0136 µM. It also gave a TGI (A498 renal) of 0.0788 µM, a GI50 (A549 NSCLC) of 0.0523 µM and a TGI (A549 NSCLC) of 11.7 µM. The GI50 (ACHN renal) was 0.0973 µM, the TGI (ACHN renal) was 6.11 µM and the GI50 (DU-145 prostate) was 0.0363 µM. For the same compound, the TGI (DU-145 prostate) was 11.1 µM, the GI50 (HS 578T breast) was 0.0461 µM and the TGI (HS 578T breast) was greater than 86.9 µM. The GI50 (MOLT-4 leukemia) was 0.0597 µM, the TGI (MOLT-4 leukemia) was 15.6 µM and the GI50 (NCI/ADR-RES ovarian) was 0.0371 µM. It also gave a TGI (NCI/ADR-RES ovarian) of 56 µM, a GI50 (SN12C renal) of 0.066 µM and a TGI (SN12C renal) of 14.7 µM.
Work on `CN1CCN(C(=O)[C@@]2(C)CC[C@]3(C)CC[C@]4(C)C(=CC[C@@H]5[C@@]6(C)CC[C@H](OC(=O)c7cccnc7)C(C)(C)[C@@H]6CC[C@]54C)[C@@H]3C2)CC1` yielded a GI50 (786-0 renal) of 1.75 µM, a TGI (786-0 renal) of 3.22 µM and a GI50 (A498 renal) of 4.38 µM. For the same compound, the TGI (A498 renal) was 18.4 µM, the GI50 (A549 NSCLC) was 1.71 µM and the TGI (A549 NSCLC) was 3.28 µM. It also gave a GI50 (ACHN renal) of 1.88 µM, a TGI (ACHN renal) of 3.39 µM and a GI50 (DU-145 prostate) of 1.81 µM. It also gave a TGI (DU-145 prostate) of 3.51 µM, a GI50 (HS 578T breast) of 1.45 µM and a TGI (HS 578T breast) of 3.14 µM. It also gave a GI50 (MOLT-4 leukemia) of 1.92 µM, a TGI (MOLT-4 leukemia) of 4.78 µM and a GI50 (NCI/ADR-RES ovarian) of 1.75 µM. It also gave a TGI (NCI/ADR-RES ovarian) of 3.72 µM, a GI50 (SF-295 CNS) of 1.62 µM and a TGI (SF-295 CNS) of 3.05 µM. For the same compound, the GI50 (SN12C renal) was 1.56 µM and the TGI (SN12C renal) was 3.15 µM.
